Our source for the inhibition values is patent publication US20070249701A1, “Cyclic amine CCR5 receptor antagonists” (TEIJIN LIMITED, priority 1999, published 2007).

SMILES strings stand for the structures.

The target of this assay is T1, human CCR5 (Homo sapiens, UniProt P51681).
T1 construct: expressed in transfected cells; host or cells: CHO cells
Briefly: Inhibition of binding of [125I]-labeled MIP-1β to membrane fraction of CHO cells expressing human CCR5. As to conditions: at a concentration of 10 μM, [125I]-MIP-1β 0.1 to 0.5 nM, read-out: inhibitory activity against binding of human MIP-1β to the membrane fraction of the cells expressing CCR5, Inhibition(%). As to the method: Measurement of Inhibitory Activity of a Compound Against Binding of [^125I]-Labeled MIP-1β to Membrane Fraction of the Cells Expressing CCR5
To a 96-well plate made of polystyrene, were respectively added 20 μL of a solution prepared by diluting each test compound with an assay buffer (50 mM HEPES, pH 7.4, 5 mM MgCl2, 1 mM CaCl2, 0.2% BSA), 25 μL of a solution obtained by diluting [^125I]-labeled MIP-1β (NEN Life Science Products, Inc.) with the assay buffer so as to provide 0.1 to 0.5 nM and 155 μL (including 4 μg of the membrane fraction) of a suspension prepared by suspending a membrane fraction of CHO cells expressing human CCR5 (the final volume of the reaction solution: 200 μL). […]
After completing the reaction, the reaction suspension was filtered through Filtermate (Packard Instrument Co.), and the filter washed with 250 μL of a precooled washing buffer (10 mM HEPES, pH 7.4, 0.5 M NaCl) nine times. […] The radioactivity was counted using TopCount NXT (Packard Instrument Co.).
The count when 0.2 μM of human MIP-1α instead of the test compound was added was subtracted as nonspecific binding, and the count when the test compound was not added was taken as 100%. Thereby, the inhibitory activity of the test compound against binding of the human MIP-1β to the membrane fraction of the cells expressing CCR5 was calculated. […]

T1 sequence (P51681 whole entry): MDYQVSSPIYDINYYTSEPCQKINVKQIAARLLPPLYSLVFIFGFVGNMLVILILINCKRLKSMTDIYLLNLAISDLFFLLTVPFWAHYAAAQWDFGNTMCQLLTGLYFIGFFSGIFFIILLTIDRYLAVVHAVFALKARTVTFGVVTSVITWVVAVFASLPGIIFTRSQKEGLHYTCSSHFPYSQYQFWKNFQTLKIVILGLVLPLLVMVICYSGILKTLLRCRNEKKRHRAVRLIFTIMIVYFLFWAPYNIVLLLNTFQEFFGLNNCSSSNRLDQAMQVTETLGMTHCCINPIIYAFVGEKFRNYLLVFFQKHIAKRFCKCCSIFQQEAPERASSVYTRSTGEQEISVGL

The inhibition is the percentage by which the read-out fell short of the control. In the case of `O=C(CNC(=O)c1cccc(SC(F)(F)F)c1)N[C@@H]1CCN(Cc2ccc(Cl)cc2)C1` [Compd. No. 1606, (R)-1-(4-chlorobenzyl)-3-[{N-(3-(trifluoromethylthio)benzoyl)glycyl}amino]pyrrolidine], the inhibition at 10 µM fell in the range of 20 to 50%.
